From patent US5071849A, “Dihydropyrimidothiazine derivatives” (priority 1989, dated 1991)
Read-outs that look alike come from different tables or passages of the source.

Tests used:
[1] = test system: carrageen - induced oedema; assay: Inhibition of carrageen-induced oedema on rats; format: in vivo; settings: for ED30: Rattus norvegicus, po, read-out: ID30 (dose resulting in an inhibition of 30%); for Therapeutical index: Table III, LD50 and ID30
Experimental: The antiinflammatory effect of the novel compounds of the invention was investigated on rats weighing 150 to 180 g. 0.1 ml of a 1 per cent carrageen suspension was injected subcutaneously into the plantar region of one of the hind paws. Rats were fasted for 12 hours and received drinking water ad libitum. One hour before treatment with the test compound animals were hydrated orally with 30 ml/kg of tap water. The test compounds or the vehicle were administered p.o. in a volume of 10 ml/kg, then two hours later carrageen was applied. The volume of the treated paw was measured by mercury-plethysmometer before and 3 hours after injection in such a way that displacement of the liquid arising from the volume alteration was indicated on a millimeter scale. The volumes of the treated paws were compared with those of the control group.

in vivo = settings: mouse, po
Experimental: White mice belonging to the CFLP strain (body weight 18-22 g; both male and female) are used, 10 animals for each dose. The test compound is administered orally in a volume of 20 ml/kg. […] The mice are kept in a plastic cage at room temperature. The animals get tap water and standard mouse fodder ad libitum.

Hexobarbital narcosis = Hexobarbital narcosis on mice; format: in vivo; settings: for ED50: Mus musculus, po, mice, p.o., 1 hour before Hexobarbital 40 mg/kg i.v., sleeping time more than 2.5 times longer than control; for Therapeutical index: Table IV, hexobarbital narcosis on mice
Experimental: Groups consisting of 6 mice are used for each dose. The animals are treated orally with the test compound, whereby sleeping is induced 1 hour later by administering a 40 mg/kg i.v. dose of Hexobarbital both to the test and control groups.
ED50 values are calculated from the thus-transformed data.

[2] = test system: experimental coronaria insufficiency induced with vasopressin; assay: Antianginal effect: vasopressin-induced experimental coronaria insufficiency, ECG wave T; format: in vivo; settings: Rattus norvegicus; rats, iv., 2 minutes prior to vasopressin
Experimental: Male rats of 180-220 g body weight were narcotised with chloralese-urethane (70/700 mg/kg ip.). The ECG was registered with needle electrodes in standard II leading. The experimental coronaria insufficiency was induced with vasopressin (4 NE/kg i.v.). The height of wave T in ECG was measured before and after the administration of vasopressin in both the control and treated groups. Test compounds were administered intravenously 2 minutes prior to the treatment with vasopressin.

[3] = rats, p.o., two hours before carrageen, paw volume 3 hours after injection

For `CC(=O)Oc1ccccc1C(=O)O` [Acetylsalicylic acid, reference compound], the ED30 ([1]; 3 h) was 200 mg/kg and the Therapeutical index [1] was 6.8.

With `CCOC(=O)C1=C(C)N=C2SCCCN2C1c1ccccc1` (stereo not drawn) [Example 1, Ethyl-(6-phenyl-8-methyl-3,4-dihydro-2H,6H-pyrimido-[2,1-b][1,3]thiazine-7-carboxylate)] the LD50 at 336 h (in vivo) was 580 mg/kg.

Molecule `CCOC(=O)C1=C(C)N=C2SCCCN2C1c1c(F)cccc1Cl` (stereo not drawn) [Example 2, Ethyl-[6-(2-fluoro-6-chlorophenyl)-8-methyl-3,4-dihydro-2H,6H-pyrimido[2,1-b][1,3]thiazine-7-carboxylate]] has an LD50 at 336 h (in vivo) of 170 mg/kg.

`CCOC(=O)C1=C(C)N=C2SCCCN2C1c1ccc(Cl)c(Cl)c1` (stereo not drawn) [Example 3, Ethyl-[6-(3,4-dichlorophenyl)-8-methyl-3,4-dihydro-2H,6H-pyrimido[2,1-b][1,3]thiazine-7-carboxylate]] showed an LD50 at 336 h (in vivo) of 1000 mg/kg.

With `COC(=O)C1=C(C)N=C2SCCCN2C1c1cccc([N+](=O)[O-])c1` (stereo not drawn) [Example 4, Methyl-[6-(3-nitrophenyl)-8-methyl-3,4-dihydro-2H,6H-pyrimido[2,1-b][1,3]thiazine-7-carboxylate]] the LD50 at 336 h (in vivo) was 370 mg/kg.

`CC1=C(C(=O)Nc2ccccc2)C(c2ccccc2)N2CCCSC2=N1` (stereo not drawn) [Example 5, 6-Phenyl-8-methyl-3,4-dihydro-2H,6H-pyrimido[2,1-b][1,3]thiazine-7-carboxylic anilide] showed an LD50 at 336 h (in vivo) of 700 mg/kg.

For `CC1=C(C(=O)Nc2ccccc2)C(c2c(F)cccc2Cl)N2CCCSC2=N1` (stereo not drawn) [Example 6, 6-(2-Fluoro-6-chlorophenyl)-8-methyl-3,4-dihydro-2H,6H-pyrimido[2,1-b][1,3]thiazine-7-carboxylic anilide], the ED50 (Hexobarbital narcosis) was 25 mg/kg, the Therapeutical index (Hexobarbital narcosis) was 40.0 and the LD50 at 336 h (in vivo) was > 1000 mg/kg.

`CCOC(=O)C1=C(C)N=C2SCCCN2C1c1ccc(OC)cc1` (stereo not drawn) [Example 7, Ethyl-[8-methyl-6-(4-methoxyphenyl)-3,4-dihydro2H,6H-pyrimido[2,1-b][1,3]thiazine-7-carboxylate]] showed an LD50 at 336 h (in vivo) of 600 mg/kg and an ED50 [2] of 1.87 mg/kg.

`COC(=O)C1=C(C)N=C2SCCCN2C1c1ccc(Cl)c([N+](=O)[O-])c1` (stereo not drawn) [Example 8] gave an LD50 at 336 h (in vivo) of 700 mg/kg and an ED50 [2] of 1.21 mg/kg.

With `COC(=O)C1=C(C)N=C2SCC(C)CN2C1c1ccc(Cl)c([N+](=O)[O-])c1` (stereo not drawn) [Example 9] the LD50 at 336 h (in vivo) was > 1000 mg/kg.

For `COC(=O)C1=C(C)N=C2SCC(C)CN2C1c1cccc([N+](=O)[O-])c1` (stereo not drawn) [Example 10], the ED50 (Hexobarbital narcosis) was 39 mg/kg, the Therapeutical index (Hexobarbital narcosis) was 25.6 and the LD50 at 336 h (in vivo) was > 1000 mg/kg.

In the case of `CCOC(=O)C1=C(C)N=C2SCCCN2C1c1ccc(Br)cc1` (stereo not drawn) [Example 11, Ethyl-[6-(4-bromophenyl)-8-methyl-3,4-dihydro-2H,6H-pyrimido[2,1-b][1,3]thiazine-7-carboxylate]], the ED50 (Hexobarbital narcosis) was ~200 mg/kg, the Therapeutical index (Hexobarbital narcosis) was 5.0 and the LD50 at 336 h (in vivo) was > 1000 mg/kg.

For `CCOC(=O)C1=C(c2ccccc2)N=C2SCCCN2C1c1c(F)cccc1Cl` (stereo not drawn) [Example 12], the LD50 at 336 h (in vivo) was > 1000 mg/kg.

Molecule `CCOC(=O)C1=C(c2ccccc2)N=C2SCCCN2C1c1ccc([N+](=O)[O-])cc1` (stereo not drawn) [Example 13, Ethyl-[8-phenyl-6-(4-nitrophenyl)-3,4-dihydro-2H,6H-pyrimido[2,1-b][1,3]thiazine-7-carboxylate]] has an ED50 (Hexobarbital narcosis) of ~200 mg/kg, a Therapeutical index (Hexobarbital narcosis) of 5.0 and an LD50 at 336 h (in vivo) of 1000 mg/kg.

Molecule `COC(=O)C1=C(C)N=C2SCCCN2C1C` (stereo not drawn) [Example 14, Methyl-(6,8-dimethyl-3,4-dihydro-2H,6H-pyrimido-[2,1-b][1,3]thiazine-7-carboxylate)] has an LD50 at 336 h (in vivo) of 400 mg/kg, an ED30 [1, 3] of 10 mg/kg and a Therapeutical index [1] of 40.

In the case of `COC(=O)C1=C(C)N=C2SCCCN2C1c1ccc(OC)cc1` (stereo not drawn) [Example 15, Methyl-[8-methyl-6-(4-methoxyphenyl)-3,4-dihydro-2H,6H-pyrimido[2,1-b][1,3]thiazine-7-carboxylate]], the LD50 at 336 h (in vivo) was > 1000 mg/kg, the ED30 [1, 3] was 70 mg/kg and the Therapeutical index [1] was > 14.3.

Work on `COC(=O)C1=C(C)N=C2SCCCN2C1c1ccc(Cl)c(Cl)c1` (stereo not drawn) [Example 16, Methyl-[6-(3,4-dichlorophenyl)-8-methyl-3,4-dihydro-2H,6H-pyrimido[2,1-b][1,3]thiazine-7-carboxylate]] yielded an LD50 at 336 h (in vivo) of 1000 mg/kg, an ED30 [1, 3] of 120 mg/kg and a Therapeutical index [1] of 8.3. For the same molecule, the ED50 [2] was ~0.81 mg/kg.

In the case of `COC(=O)C1=C(C)N=C2SCCCN2C1c1cc(OC)c(OC)c(OC)c1` (stereo not drawn) [Example 18, Methyl-[8-methyl-6-(3,4,5-trimethoxyphenyl)-3,4-dihydro-2H,6H-pyrimido[2,1-b][1,3]thiazine-7-carboxylate]], the LD50 at 336 h (in vivo) was > 1000 mg/kg, the ED30 [1, 3] was 110 mg/kg and the Therapeutical index [1] was > 9.1.

Molecule `CCOC(=O)C1=C(c2ccccc2)N=C2SCCCN2C1c1ccc(OC)cc1` (stereo not drawn) [Example 19, Ethyl-[8-phenyl-6-(4-methoxyphenyl)-3,4-dihydro-2H,6H-pyrimido[2,1-b][1,3]thiazine-7-carboxylate]] has an ED50 [2] of 1.45 mg/kg.

`CCOC(=O)C1=C(C)N=C2SCCCN2C1c1ccc(N(C)C)cc1` (stereo not drawn) [Example 22, Ethyl-[6-(4-dimethylaminophenyl)-8-methyl-3,4-dihydro-2H,6H-pyrimido[2,1-b][1,3]thiazine-7-carboxylate]] showed an LD50 at 336 h (in vivo) of 700 mg/kg, an ED30 [1, 3] of 10 mg/kg and a Therapeutical index [1] of 70.

With `COC(=O)C1=C(C)N=C2SCCCN2C1c1ccccc1OC` (stereo not drawn) [Example 25, Methyl-[8-methyl-6-(2-methoxyphenyl)-3,4-dihydro-2H,6H-pyrimido[2,1-b][1,3]thiazine-7-carboxylate]] the LD50 at 336 h (in vivo) was 100 to 500 mg/kg, the ED30 [1, 3] was 10 mg/kg and the Therapeutical index [1] was 10-50.

Molecule `COc1ccc2c(c1)c(CC(=O)O)c(C)n2C(=O)c1ccc(Cl)cc1` [Indomethacin, reference compound] has an ED30 ([1]; 3 h) of 3 mg/kg and a Therapeutical index [1] of 7.3.

With `CCCC(C)(COC(N)=O)COC(N)=O` [Meprobamate, reference compound] the ED50 (Hexobarbital narcosis) was 260 mg/kg and the Therapeutical index (Hexobarbital narcosis) was 4.2.

With `CC(=O)Nc1ccc(O)cc1` [Paracetamol, reference compound] the LD50 at 336 h (in vivo) was 1180 mg/kg, the ED30 [1, 3] was 200 mg/kg and the Therapeutical index [1] was 5.9.

`CCCCC1C(=O)N(c2ccccc2)N(c2ccccc2)C1=O` [Phenylbutazone, reference compound] gave an ED30 [1, 3] of 40 mg/kg.

Work on `CC(Cc1ccccc1)NCCC(c1ccccc1)c1ccccc1` (stereo not drawn) [Prenylamine, reference compound] yielded an ED50 [2] of 6.5 mg/kg.
